Assay results reported in patent US20240425518A1, “N-MACROCYCLIC AMIDE COMPOUNDS, PREPARATION METHODS THEREOF AND APPLICATIONS THEREOF AS MEDICAMENTS” (Chengdu FANXI Biopharma Co., Ltd., priority 2023, published 2024).

Assays:
Assay type in all cases: biochemical
Flt3 (h) = target: T1, Flt3 (h) (Homo sapiens, UniProt P36888); test: Radioisotope labeling kinase assay (Eurofins), Flt3; details: for activity at 1 µM: 1 μM compound, read-out: Inhibitory activity per unit concentration/Activity % Flt3 (h)
T1 construct: purchased Eurofins
T1 sequence (P36888 27-993): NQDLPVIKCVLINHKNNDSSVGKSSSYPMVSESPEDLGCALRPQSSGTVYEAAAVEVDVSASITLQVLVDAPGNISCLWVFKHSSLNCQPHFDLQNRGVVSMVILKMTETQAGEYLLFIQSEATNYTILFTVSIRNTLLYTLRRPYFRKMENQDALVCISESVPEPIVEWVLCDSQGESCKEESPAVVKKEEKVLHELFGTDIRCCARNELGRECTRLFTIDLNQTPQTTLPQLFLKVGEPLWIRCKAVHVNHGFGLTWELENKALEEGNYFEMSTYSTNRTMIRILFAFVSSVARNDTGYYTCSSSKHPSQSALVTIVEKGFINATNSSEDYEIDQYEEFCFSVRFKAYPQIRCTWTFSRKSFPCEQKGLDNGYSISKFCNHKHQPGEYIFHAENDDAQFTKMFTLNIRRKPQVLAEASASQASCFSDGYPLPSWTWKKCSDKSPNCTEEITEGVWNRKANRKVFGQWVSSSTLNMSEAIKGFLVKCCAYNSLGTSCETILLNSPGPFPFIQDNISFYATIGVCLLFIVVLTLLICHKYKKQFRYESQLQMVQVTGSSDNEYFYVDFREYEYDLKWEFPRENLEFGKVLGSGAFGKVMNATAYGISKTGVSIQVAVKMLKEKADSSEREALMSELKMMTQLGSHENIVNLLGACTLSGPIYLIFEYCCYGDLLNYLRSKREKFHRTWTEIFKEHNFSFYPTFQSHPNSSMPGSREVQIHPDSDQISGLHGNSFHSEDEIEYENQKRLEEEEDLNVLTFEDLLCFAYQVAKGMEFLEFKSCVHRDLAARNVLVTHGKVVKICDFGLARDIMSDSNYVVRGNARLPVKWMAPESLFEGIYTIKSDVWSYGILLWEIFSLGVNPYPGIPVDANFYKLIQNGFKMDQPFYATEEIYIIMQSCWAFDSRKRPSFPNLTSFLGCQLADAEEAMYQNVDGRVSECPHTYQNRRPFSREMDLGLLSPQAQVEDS
Experimental: (§1) An activity to a human recombinant protein kinase of a series of compounds was determined by a radioisotope labeling method, which was provided by Eurofins Company. A compound to be detected was mixed with a corresponding protein kinase buffer (20 mM propyl sulfonate (MOPS, […].), 1 mM EDTA, 0.10 β-mercaptoethanol, 0.010 Brij-35, […], and 1 mg/mL BSA), the mixture was added into a reaction system (100 μM reaction substrate […], 8 mM MOPS with a pH value of 7.0, 10 mM MgAcetate, 0.2 mM EDTA, and a certain concentration of γ-^33P-ATP). After adding an MgATP composite solution, the reaction was started at room temperature for 40 minutes, and the reaction was terminated by adding 5 μl of […] solution. Then, 10 μl of reaction solution was dropwise added onto a filter and washed with 75 mM phosphoric acid solution for three times, 5 minutes each time, then washed with methanol once again, and dried and subjected to scintillation counting.

JAK2 (h) = target: T2, JAK2 (h) (Homo sapiens, UniProt O60674); test: Radioisotope labeling kinase assay (Eurofins), JAK2
T2 construct: purchased Eurofins
T2 sequence (O60674 whole entry): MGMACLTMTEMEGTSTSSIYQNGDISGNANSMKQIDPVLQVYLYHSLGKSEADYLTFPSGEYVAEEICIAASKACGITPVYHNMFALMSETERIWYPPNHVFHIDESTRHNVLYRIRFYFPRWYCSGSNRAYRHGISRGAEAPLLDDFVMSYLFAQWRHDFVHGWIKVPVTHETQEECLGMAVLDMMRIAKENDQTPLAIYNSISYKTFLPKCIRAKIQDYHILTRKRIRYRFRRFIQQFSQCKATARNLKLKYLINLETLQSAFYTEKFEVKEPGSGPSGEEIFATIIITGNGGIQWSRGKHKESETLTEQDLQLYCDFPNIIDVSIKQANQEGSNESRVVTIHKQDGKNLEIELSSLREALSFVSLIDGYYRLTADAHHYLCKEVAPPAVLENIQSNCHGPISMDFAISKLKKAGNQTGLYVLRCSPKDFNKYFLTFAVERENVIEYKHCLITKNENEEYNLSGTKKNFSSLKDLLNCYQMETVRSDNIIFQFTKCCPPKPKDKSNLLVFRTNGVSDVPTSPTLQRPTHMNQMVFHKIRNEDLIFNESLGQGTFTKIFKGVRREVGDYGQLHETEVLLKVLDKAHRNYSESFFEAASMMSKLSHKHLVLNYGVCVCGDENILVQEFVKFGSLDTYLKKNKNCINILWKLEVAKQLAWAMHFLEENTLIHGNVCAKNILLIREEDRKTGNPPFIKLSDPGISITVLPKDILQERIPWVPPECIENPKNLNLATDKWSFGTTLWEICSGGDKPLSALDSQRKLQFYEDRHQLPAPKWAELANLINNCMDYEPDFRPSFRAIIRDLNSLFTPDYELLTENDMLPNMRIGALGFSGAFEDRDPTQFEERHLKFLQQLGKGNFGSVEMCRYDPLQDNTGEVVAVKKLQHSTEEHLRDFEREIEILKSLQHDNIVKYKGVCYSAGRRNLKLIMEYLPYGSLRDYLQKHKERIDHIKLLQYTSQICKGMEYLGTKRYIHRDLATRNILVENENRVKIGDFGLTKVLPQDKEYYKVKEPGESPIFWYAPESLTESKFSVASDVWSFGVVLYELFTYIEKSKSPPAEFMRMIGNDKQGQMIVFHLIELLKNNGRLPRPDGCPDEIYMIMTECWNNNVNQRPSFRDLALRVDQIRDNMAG
Experimental: as §1

JAK3 (h) = target: T3, JAK3 (h) (Homo sapiens, UniProt P52333); test: Radioisotope labeling kinase assay (Eurofins), JAK3; details: for activity at 1 µM: 1 μM compound, read-out: Inhibitory activity per unit concentration/Activity % JAK3 (h)
T3 construct: purchased Eurofins
T3 sequence (P52333 1-1124): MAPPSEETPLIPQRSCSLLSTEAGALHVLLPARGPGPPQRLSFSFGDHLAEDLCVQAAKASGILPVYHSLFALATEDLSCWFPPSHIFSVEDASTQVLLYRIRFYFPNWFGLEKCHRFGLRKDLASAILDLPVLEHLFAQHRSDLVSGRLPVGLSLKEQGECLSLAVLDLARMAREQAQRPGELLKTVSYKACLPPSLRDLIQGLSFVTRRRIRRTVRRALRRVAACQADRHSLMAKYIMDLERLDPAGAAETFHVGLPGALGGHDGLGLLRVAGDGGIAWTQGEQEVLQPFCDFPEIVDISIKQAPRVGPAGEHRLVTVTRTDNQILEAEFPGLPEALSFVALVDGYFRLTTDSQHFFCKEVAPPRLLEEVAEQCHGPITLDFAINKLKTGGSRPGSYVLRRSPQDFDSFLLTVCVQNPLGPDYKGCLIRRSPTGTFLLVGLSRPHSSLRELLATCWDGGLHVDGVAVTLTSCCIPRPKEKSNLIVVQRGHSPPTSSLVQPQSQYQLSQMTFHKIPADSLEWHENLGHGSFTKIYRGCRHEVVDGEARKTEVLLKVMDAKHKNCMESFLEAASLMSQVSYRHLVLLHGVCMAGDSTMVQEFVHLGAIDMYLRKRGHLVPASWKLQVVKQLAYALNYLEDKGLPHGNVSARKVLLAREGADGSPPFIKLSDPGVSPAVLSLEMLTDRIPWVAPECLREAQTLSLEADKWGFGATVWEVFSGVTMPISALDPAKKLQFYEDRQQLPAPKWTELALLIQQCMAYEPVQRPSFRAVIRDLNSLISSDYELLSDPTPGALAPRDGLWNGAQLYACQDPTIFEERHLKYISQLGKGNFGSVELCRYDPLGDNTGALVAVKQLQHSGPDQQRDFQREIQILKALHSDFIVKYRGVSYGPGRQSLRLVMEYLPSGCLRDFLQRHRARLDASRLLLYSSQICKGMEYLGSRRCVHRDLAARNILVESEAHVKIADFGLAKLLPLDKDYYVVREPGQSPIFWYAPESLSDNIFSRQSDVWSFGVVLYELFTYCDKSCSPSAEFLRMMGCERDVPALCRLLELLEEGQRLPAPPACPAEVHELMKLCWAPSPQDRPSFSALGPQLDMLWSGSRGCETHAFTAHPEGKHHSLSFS
Experimental: as §1

TrkA (h) = target: T4, TrkA (h) (Homo sapiens, UniProt P04629); test: Radioisotope labeling kinase assay (Eurofins), TrkA
T4 construct: purchased Eurofins
T4 sequence (P04629 33-796): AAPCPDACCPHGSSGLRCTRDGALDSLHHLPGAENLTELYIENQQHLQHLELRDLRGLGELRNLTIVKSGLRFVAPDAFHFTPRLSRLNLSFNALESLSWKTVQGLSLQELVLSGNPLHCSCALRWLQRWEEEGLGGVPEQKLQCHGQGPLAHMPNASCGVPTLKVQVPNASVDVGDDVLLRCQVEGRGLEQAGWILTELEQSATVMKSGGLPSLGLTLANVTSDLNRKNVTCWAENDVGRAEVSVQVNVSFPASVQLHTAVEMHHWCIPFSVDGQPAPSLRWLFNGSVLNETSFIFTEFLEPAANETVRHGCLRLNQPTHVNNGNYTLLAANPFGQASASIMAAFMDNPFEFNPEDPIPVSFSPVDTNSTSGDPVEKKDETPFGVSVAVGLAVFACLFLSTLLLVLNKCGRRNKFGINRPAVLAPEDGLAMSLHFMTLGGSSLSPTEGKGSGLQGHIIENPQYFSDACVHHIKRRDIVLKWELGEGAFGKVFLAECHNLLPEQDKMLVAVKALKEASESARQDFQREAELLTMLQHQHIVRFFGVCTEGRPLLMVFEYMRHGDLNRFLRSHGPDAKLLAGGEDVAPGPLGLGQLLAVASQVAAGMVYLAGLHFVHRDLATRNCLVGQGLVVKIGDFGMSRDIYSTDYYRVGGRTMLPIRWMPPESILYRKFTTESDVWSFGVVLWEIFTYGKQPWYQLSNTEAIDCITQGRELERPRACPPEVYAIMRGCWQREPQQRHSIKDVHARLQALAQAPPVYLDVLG
Experimental: as §1

Structure (SMILES)	IC50 (Flt3 (h)) [nM]	activity at 1 µM (Flt3 (h)) [%]	IC50 (JAK2 (h)) [nM]	activity at 1 µM (JAK3 (h)) [%]	IC50 (TrkA (h)) [nM]	IC50 (JAK3 (h)) [nM]
Nc1cc2cc(c1)Nc1nccc(n1)-c1cccc(c1)COC/C=C/COC2 [XIII-1]	8	4	6	10	2	–
O=C(/C=C/CN1CCCC1)Nc1cc2cc(c1)Nc1nccc(n1)-c1cccc(c1)COC/C=C/COC2 [XVI-1]	2	1	9	9	1	–
O=C(/C=C/CN1CCOCC1)Nc1cc2cc(c1)Nc1nccc(n1)-c1cccc(c1)COC/C=C/COC2 [XVI-3]	4	3	6	8	2	–
C/C=C/C(=O)Nc1cc2cc(c1)Nc1nccc(n1)-c1cccc(c1)COC/C=C/COC2 [XVI-4]	5	5	10	11	2	–
C=CC(=O)Nc1cc2cc(c1)Nc1nccc(n1)-c1cccc(c1)COC/C=C/COC2 [XVI-6]	15	5	16	16	2	–
CN(C)C/C=C/C(=O)Nc1cc2cc(c1)Nc1nccc(n1)-c1cccc(c1)COC/C=C/COC2 [XVI-8]	9	2	29	19	3	–
O=C(O)/C=C/C(=O)Nc1cc2cc(c1)Nc1nccc(n1)-c1cccc(c1)COC/C=C/COC2 [XVI-9]	31	4	7	4	3	17
O=C(/C=C/C(=O)N1CCOCC1)Nc1cc2cc(c1)Nc1nccc(n1)-c1cccc(c1)COC/C=C/COC2 [XVI-10]	21	3	17	2	16	44
O=C(/C=C/C(=O)N1CCNCC1)Nc1cc2cc(c1)Nc1nccc(n1)-c1cccc(c1)COC/C=C/COC2 [XVI-11]	22	1	38	6	21	151
C1=C/COCc2cccc(c2)-c2ccnc(n2)Nc2cc(cc(OC/C=C/CN3CCCC3)c2)COC/1 [XVI-12]	15	-8	124	26	18	–
CN(C)C/C=C/C(=O)Nc1cc2cc(c1)Nc1nccc(n1)-c1cccc(c1)COC/C=C/CN(C)C2 [XVI-26]	21	7	328	74	28	–
C/C=C/C(=O)Nc1cc2cc(c1)Nc1nccc(n1)-c1cccc(c1)COC/C=C/CN(C)C2 [XVI-28]	9	8	86	51	20	–
C#CC(=O)Nc1cc2cc(c1)Nc1nccc(n1)-c1cccc(c1)COC/C=C/COC2 [XVII-1]	7	4	13	16	2	–
